The values below come from ChEMBL document CHEMBL3882736, “Modulation microtubules diseases; antiproliferative agents; antiinflamamtory agents” (2011).

Some results are limits rather than exact numbers.

Usually inhibition stands for how much of the control response was suppressed.

Assay [1] is described as follows: Cytotoxicity against human K562 cells assessed as growth inhibition at 20 uM after 40 hrs by MTT assay relative to control. The following applies: K562, 40 h, read-out: GI. It counts as functional. The gist of the method: (§1)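 In 96-well plates, 10 µL compound (10× final) from screening plates prepared at 20 µM received 90 µL per well of late-log-phase human tumour cells in their own medium with 10% FBS. The plates stood 40 hr at 37° C. with 5% CO2 before a 6-hour MTT step, overnight SDS/HCl lysis and reading at 590 nm. Values give growth inhibition relative to control.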

Assay [2] can be described thus: Cytotoxicity against human PC3 cells assessed as growth inhibition at 20 uM after 40 hrs by MTT assay relative to control. The assay is classed as functional. The settings on record: PC-3, 40 h, read-out: GI. The gist of the method: as §1
Assay [3] addresses Tyrosine-protein kinase JAK2 (Homo sapiens) (UniProt O60674). The assay can be described thus: Inhibition of TEL-fused JAK2 kinase domain (2994 to 3914 nucleotide) (unknown origin) expressed in mouse BaF3 cells assessed as decrease in cell growth at 20 uM after 40 hrs by MTT assay relative to control. It counts as cell-based. For orientation: Tetrazolium assays rely on reduction of a dye to a coloured formazan, in cell work by metabolically active cells.

Assay [4] deals with T1, Tyrosine-protein kinase JAK3 (Homo sapiens) (UniProt P52333).
T1 sequence (whole entry): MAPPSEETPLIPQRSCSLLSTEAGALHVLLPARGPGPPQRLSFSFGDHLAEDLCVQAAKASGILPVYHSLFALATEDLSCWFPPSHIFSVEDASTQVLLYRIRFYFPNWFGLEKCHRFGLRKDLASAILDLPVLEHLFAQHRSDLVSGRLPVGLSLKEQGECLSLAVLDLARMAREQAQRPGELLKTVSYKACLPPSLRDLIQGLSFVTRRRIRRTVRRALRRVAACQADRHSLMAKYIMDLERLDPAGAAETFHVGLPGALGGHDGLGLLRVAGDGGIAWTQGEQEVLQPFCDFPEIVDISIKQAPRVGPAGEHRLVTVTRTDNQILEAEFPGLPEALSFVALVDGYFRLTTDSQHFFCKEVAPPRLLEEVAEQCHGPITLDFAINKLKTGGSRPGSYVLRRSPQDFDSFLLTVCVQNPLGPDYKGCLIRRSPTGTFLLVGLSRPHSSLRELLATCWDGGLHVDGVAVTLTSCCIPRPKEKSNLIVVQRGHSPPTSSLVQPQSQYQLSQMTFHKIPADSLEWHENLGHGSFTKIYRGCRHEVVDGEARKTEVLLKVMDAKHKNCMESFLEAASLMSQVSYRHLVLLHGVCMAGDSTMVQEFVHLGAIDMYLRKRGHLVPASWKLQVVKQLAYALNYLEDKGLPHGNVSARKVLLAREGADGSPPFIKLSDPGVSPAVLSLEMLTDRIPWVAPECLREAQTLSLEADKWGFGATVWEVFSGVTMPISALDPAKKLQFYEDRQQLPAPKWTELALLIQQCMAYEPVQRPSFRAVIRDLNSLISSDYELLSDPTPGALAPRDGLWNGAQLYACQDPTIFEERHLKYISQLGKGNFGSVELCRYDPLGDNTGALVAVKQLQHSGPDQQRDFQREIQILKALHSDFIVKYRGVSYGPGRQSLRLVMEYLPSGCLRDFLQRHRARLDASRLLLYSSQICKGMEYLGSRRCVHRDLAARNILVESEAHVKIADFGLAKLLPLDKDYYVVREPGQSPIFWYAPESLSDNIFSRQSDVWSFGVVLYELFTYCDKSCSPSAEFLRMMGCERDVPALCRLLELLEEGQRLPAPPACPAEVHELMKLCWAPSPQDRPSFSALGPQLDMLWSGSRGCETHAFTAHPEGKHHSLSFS
The assay can be described thus: Inhibition of TEL-fused JAK3 kinase domain (2520 to 3469 nucleotide) (unknown origin) expressed in mouse BaF3 cells assessed as decrease in cell growth at 20 uM after 40 hrs by MTT assay relative to control. The assay is classed as cell-based.

In assay [5] the target is Tubulin (Homo sapiens) (UniProt P68371+Q9H4B7+P0DPH7+P68366+Q13509+Q71U36+P04350+Q3ZCM7+P07437+P68363+Q9BQE3+Q6PEY2+Q13885+Q9BVA1+Q9BUF5). Nature of the assay: Inhibition of tubulin (unknown origin) polymerization at 50 uM by turbidometric method relative to control. It counts as protein-complex assay. In a few lines: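 Values are percent inhibition of microtubule polymerisation relative to control. Microtubule protein of unstated origin was incubated with compound at 0° C., then polymerisation was started in cuvettes with 1 mM GTP and heating to 37° C. Absorbance at 340 nm was recorded over time.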

Assay [6] in a line: Cytotoxicity against human DU145 cells assessed as growth inhibition at 20 uM after 40 hrs by MTT assay relative to control. It counts as functional. The following applies: DU-145, 40 h, read-out: GI. The gist of the method: as §1

Tyrosine-protein kinase JAK2 (Homo sapiens), sequence (O60674 whole entry, the tested form may be a part): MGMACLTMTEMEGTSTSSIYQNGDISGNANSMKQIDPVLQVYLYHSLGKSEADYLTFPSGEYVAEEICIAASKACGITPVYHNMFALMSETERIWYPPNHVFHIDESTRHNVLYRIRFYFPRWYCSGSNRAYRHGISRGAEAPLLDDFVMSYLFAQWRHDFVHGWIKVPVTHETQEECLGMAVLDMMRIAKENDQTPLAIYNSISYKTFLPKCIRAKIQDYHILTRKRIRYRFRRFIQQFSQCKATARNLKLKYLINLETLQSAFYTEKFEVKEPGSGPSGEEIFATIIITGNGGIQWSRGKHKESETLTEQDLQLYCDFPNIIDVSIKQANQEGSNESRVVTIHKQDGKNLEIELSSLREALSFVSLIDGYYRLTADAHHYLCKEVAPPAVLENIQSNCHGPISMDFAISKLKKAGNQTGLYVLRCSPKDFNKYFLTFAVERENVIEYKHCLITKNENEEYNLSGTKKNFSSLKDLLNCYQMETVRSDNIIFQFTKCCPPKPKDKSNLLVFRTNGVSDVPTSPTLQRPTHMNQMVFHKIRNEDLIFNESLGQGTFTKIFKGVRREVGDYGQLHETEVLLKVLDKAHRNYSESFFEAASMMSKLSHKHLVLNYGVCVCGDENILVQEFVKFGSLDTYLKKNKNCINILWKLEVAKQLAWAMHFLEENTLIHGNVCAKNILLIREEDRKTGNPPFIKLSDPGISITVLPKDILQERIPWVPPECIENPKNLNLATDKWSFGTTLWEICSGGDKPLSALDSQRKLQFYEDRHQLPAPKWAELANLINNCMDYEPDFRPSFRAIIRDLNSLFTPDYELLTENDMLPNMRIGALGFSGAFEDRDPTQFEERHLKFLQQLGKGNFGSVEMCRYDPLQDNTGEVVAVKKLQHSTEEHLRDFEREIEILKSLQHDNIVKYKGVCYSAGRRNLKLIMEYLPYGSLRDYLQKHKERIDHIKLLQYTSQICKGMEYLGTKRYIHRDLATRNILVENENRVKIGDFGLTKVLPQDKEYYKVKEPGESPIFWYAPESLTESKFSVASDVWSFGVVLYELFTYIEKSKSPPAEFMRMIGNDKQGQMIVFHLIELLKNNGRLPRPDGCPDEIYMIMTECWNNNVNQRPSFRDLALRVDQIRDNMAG

`CCC[C@H](Nc1cncc(-c2ccc(NC(=O)NC)c(OC)c2)n1)c1ccccn1`: the inhibition of growth at 20 µM in assay [1], in assay [2] and in assay [6] was above 50% each time. Further, the inhibition in assay [3], in assay [4] and in assay [5] was above 50% throughout.
Turning to `COc1cc(-c2cncc(NC(C)c3cccc(NC(=O)c4ccncc4)c3)n2)ccc1O` (configuration not stated), the inhibition in assay [3], in assay [4] and in assay [5] was above 50% throughout. In addition, the inhibition of growth at 20 µM in assay [6] is above 50%.
`CCC[C@H](Nc1ccnc(-c2ccc(NC(=O)NCC)c(OC)c2)n1)c1cccnc1`: in assay [2], the inhibition of growth at 20 µM is above 50%. In assay [5], this compound registered an inhibition above 50%.
As for `CCCC(Nc1cncc(-c2ccc(CN)c(OC)c2)n1)c1cccnc1` (configuration not stated), the inhibition of growth at 20 µM in assay [2] was above 50%. For the same compound, the inhibition in assay [5] was above 50%.
As to `CCCC(Nc1cncc(-c2ccc(OCCCCN3CCCC3)c(OC)c2)n1)c1ccccc1` (configuration not stated), the inhibition of growth at 20 µM in assay [2] was above 50%. The same compound displayed an inhibition in assay [5] above 50%.
As for `CCCC(Nc1cncc(-c2ccc(NC(=O)NCC)c(OC)c2)n1)c1cncc(C)c1` (configuration not stated), the inhibition of growth at 20 µM in assay [2] is above 50%. The compound further gave an inhibition in assay [5] above 50%.
Regarding `CCCC(Nc1cncc(-c2ccc(CN)cc2)n1)c1ccccc1` (configuration not stated), in assay [2], the inhibition of growth at 20 µM is above 50%. In assay [5], this compound registered an inhibition above 50%.
Consider `CC[C@H](Nc1nc(-c2ccc(O)c(OC)c2)ncc1C)c1cccnc1`, for which, in assay [2], the inhibition of growth at 20 µM is above 50%. This compound had an inhibition in assay [5] above 50%.
As for `CCCC(Nc1cncc(-c2ccc(OCCCN(CC)CC)c(OC)c2)n1)c1ccccc1` (configuration not stated), the inhibition of growth at 20 µM in assay [2] is above 50%. Besides, in assay [5], the inhibition was above 50%.
Take `CCCC(Nc1cncc(-c2ccc(CN3CCCC3)cc2)n1)c1ccccc1` (configuration not stated): in assay [2], the inhibition of growth at 20 µM was above 50%. For the same compound, the inhibition in assay [5] was above 50%.
As for `CCCC(Nc1cncc(-c2ccc(OCCCN3CCN(C)CC3)c(OC)c2)n1)c1ccccc1` (configuration not stated), the inhibition of growth at 20 µM in assay [2] was above 50%. Further, in assay [5], the inhibition was above 50%.
For `CCCC(Nc1cncc(-c2ccc(OCCCn3ccnc3)c(OC)c2)n1)c1ccccc1` (configuration not stated), the inhibition of growth at 20 µM in assay [2] was above 50%. In assay [5], this compound had an inhibition above 50%.
For `CCCC(Nc1cncc(-c2ccc(NC(=O)NCC)c(OC)c2)n1)c1cccnc1C` (configuration not stated), the inhibition of growth at 20 µM in assay [2] was above 50%. In assay [5], this compound showed an inhibition above 50%.
Take `CCCC(Nc1cncc(-c2ccc(NC(=O)NCC)c(OC)c2)n1)c1ccccn1` (configuration not stated): the inhibition of growth at 20 µM in assay [2] is above 50%. In assay [5], this compound showed an inhibition above 50%.
`CCCC(Nc1cncc(-c2ccc(O)c(OC)c2)c1)c1ccccc1` (configuration not stated): in assay [2], the inhibition of growth at 20 µM is above 50%. For the same compound, in assay [5], the inhibition was above 50%.
As for `CCC[C@H](Nc1cncc(-c2ccc(NC(=O)NCC)c(OC)c2)n1)c1ccccn1`, the inhibition of growth at 20 µM in assay [2] was above 50%. In assay [5], this compound registered an inhibition above 50%.
Regarding `CCCC(Nc1cncc(-c2ccc(OCCCO)c(OC)c2)n1)c1ccccc1` (configuration not stated), the inhibition of growth at 20 µM in assay [2] was above 50%. Also, the inhibition in assay [5] was above 50%.
`CCCC(Nc1cncc(-c2ccc(OCCCCN(CC)CC)c(OC)c2)n1)c1ccccc1` (configuration not stated): the inhibition of growth at 20 µM in assay [2] was above 50%. In assay [5], the inhibition was above 50%.
For the compound `CCNC(=O)Nc1ccc(-c2cncc(NC(CCOC)c3ccccc3)n2)cc1OC` (configuration not stated), in assay [2], the inhibition of growth at 20 µM was above 50%. For the same compound, in assay [5], the inhibition was above 50%.
On to `CCCC(Nc1cncc(-c2ccc(OCCCN3CCCC3)c(OC)c2)n1)c1ccccc1` (configuration not stated), for which the inhibition of growth at 20 µM in assay [2] was above 50%. Further, the inhibition in assay [5] is above 50%.
As for `CCCC(Nc1cncc(-c2ccc(NC(=O)NCCCN3CCOCC3)c(OC)c2)n1)c1cccnc1` (configuration not stated), the inhibition of growth at 20 µM in assay [2] was above 50%. Further, the inhibition in assay [5] is above 50%.
For `CCCC(Nc1cncc(-c2ccc(NC(=O)NCC)c(OC)c2)n1)c1cccc(F)c1` (configuration not stated), the inhibition of growth at 20 µM in assay [2] was above 50%. The compound further registered an inhibition in assay [5] above 50%.
On to `COc1cc(-c2cncc(N[C@@H](C)c3ccccc3)c2)ccc1O`, for which the inhibition of growth at 20 µM in assay [2] was above 50%. Further, in assay [5], the inhibition is above 50%.
